The values below come from US10745731B2, “Recombinant production method” (Hoffmann-La Roche Inc., priority 2015, dated 2020).

Read-outs that look alike come from different tables or passages of the source.

Data set [1] concerns HEK293F cells. Briefly: Transient gene expression in HEK293F cells: IgG concentration / titer (turbidimetric test). The note with it: none=100; for relative IgG concentration: N=3; for relative titer: N=2. It counts as cell-based, human. The protocol: (§1) Transient gene expression is a 5-7 days lasting procedure. The standard operating procedure of this expression system is applicable to shaker flasks with various volumes of cell culture ranging from 80 mL to 2 L. First, half of the cell culture volume is seeded at a viable cell density (VCD) of 8*10^5 cells/mL. After two days of cultivation, cells are split to a VCD of about 12*10^5 cells/mL. On the next day, cells are transfected with a polyethylene imine (PEI)-based transfection reagent at a VCD between 20*10^5 cells/mL and 25*10^5 cells/mL. 3 hours after transfection, the production enhancer (if any) is added. 24 h after transfection, a feeding solution and a glucose bolus is supplemented to avoid the limitation of nutrients. Depending on cell viability, which should not decrease below 50%, the supernatant is harvested five to seven days post transfection and subjected to antibody purification.
(§2) To compare transient gene expression rates always the same plasmids encoding for one distinct antibody were co-transfected.
(§3) To co-transfect two plasmids equimolarily, the ratio of the base pair number of one plasmid to the total base pair number was calculated and multiplied with the total amount of DNA (0.5 mg/L). Plasmid one has a size of 10530 bp and plasmid two has a size of 7184 bp and were solved in water to a final concentration of 1 mg/mL. For transfection of one liter cell culture, 297 μL of plasmid one and 203 μl of plasmid two were dissolved in 40 mL phosphate buffered saline (PBS) at room temperature. 1.25 mL JetPEI® solution was added and the solution was mixed well. After incubation for 10-15 min., the mixture was added to the cells. The cells were transfected in a batch containing the whole cell culture necessary for every experiment to avoid variance arising from different transfection efficiencies.
(§4) 80 mL of the transfected cell culture batch was added to a 125 ml shaker flask. For every experiment, two or three 125 mL shaker flasks were used as biological replicates and treated the same way. Three hours after transfection, cells were split into 125 mL shaker flasks and the cellular treatments with small molecules or ligands were started. Basal protein expression was determined by untreated control samples. To compare samples with the standard operating procedure, cells were also treated with VPA to a final concentration of 4 mM or 3 mM. VPA and its analogues were dissolved in double distilled water. […] Tumor necrosis factor (TNF) alpha was reconstituted with PBS supplemented with 0.1% BSA. Flagellin was dissolved in sterile double distilled water. The applied molecules were not added to the cultivation directly, but diluted in 16 mL medium pre-warmed to 36.5° C. and added to the cultivation thereafter.
(§5) 24 h after transfection a feeding solution at 36.5° C. and 3 mg/mL glucose were added to the cultivation.
Total concentration of the transiently expressed antibody was determined by a turbidimetric test. One mL cell suspension was transferred into an Eppendorf cup and centrifuged for 10 min. at 10,000 rpm (9,300 g). The supernatant was transferred into a new cup and subjected to Cobas Integra 400 plus (Roche) analysis. With comparison to internal standard the absolute concentration was calculated.

For data set [2], the system named is HDAC. Briefly: in situ HDAC activity fluorimetric assay in HEK293F cells. The note with it: for HDACi: N=3, FIG. 3A; for HDAC inhibition: yes/no, summary table. The data set is classed as cell-based, human. The protocol: HDAC activity was determined by the in situ HDAC activity fluorimetric assay kit (Biovision) according to the manufacturer's instructions. HEK293F cells were suspended in F17 medium (Life Technologies) to a cell density of 5*10^5 cells/mL. One hundred micro liter culture was pipetted per well into a black ELISA plate. The plate was centrifuged at 1000 g for 5 min. The supernatant was discarded and the cells were resuspended in a reaction mix containing F17 medium, 1% HDAC substrate and the molecule tested towards HDAC inhibitory activity. 10 μM Trichostatin A was used as a positive control and the basal HDAC activity was determined by re-suspending the cells in F17 medium with 1% HDAC substrate. Furthermore, cells were resuspended in F17 medium without HDAC substrate as a background control. The HDAC activity assay was performed in triplicates for every sample as well as every control. The 96-well plate was incubated at 36.5° C., 80% humidity and 7% CO2 for one hour. During this time, the active HDACs deacetylate the HDAC substrate what releases the quenched fluorescent signal of the substrate. After incubation the fluorescent signal was analyzed by the infinite fluorescence plate reader (TECAN). The fluorescence signal of the samples and controls was normalized by subtracting the fluorescence signal of the background control. It is assumed that the fluorescent signal arising from deacetylation of the substrate directly correlates with HDAC activity.

For data set [3], the system named is HEK293F cells. Briefly: Transient gene expression in HEK293F cells: cell specific productivity of the expressed antibody. The data set is classed as cell-based, human. The following applies: for cell specific productivity with BAY11-7082 addition compared to the single treatment: 15 μM BAY11-7082 added 24 h after transfection; for specific productivity after 96 hours: none 2.01; for Mean cell specific productivity: untreated 1.71. The method, then: HEK293F cells were cultivated in F17 medium (Life Technologies) in shaker flasks at 36.5° C., 7.0% CO2 and 80% humidity in a shaker incubator (Kuhner, Mytron). Cells were split every three to four days and were cultivated no longer than five weeks. To avoid overgrowth and to keep them in the exponential phase of growth, viable cell densities (VCD) never exceeded 60*10^5 cells/mL.
as §1, §2, §3, §4, §5
(§6) To determine cell viability and viable cell density (VCD) 1 mL cultivation medium (cell suspension) was transferred into a Cedex low fouling sample cup. The cup was placed into a Vicell instrument (Beckman Coulter). The instrument mixes cells with trypan blue to stain dead cells. After analysis of 50 images VCD was calculated and viability was determined by calculation of the percentage of viable cell number in relation to the total cell number.
Total concentration of the transiently expressed antibody was determined by a turbidimetric test. One mL cell suspension was transferred into an Eppendorf cup and centrifuged for 10 min. at 10,000 rpm (9,300 g).

Data set [4] deals with HDAC. The note with it: description from the literature; cited from earlier work.
In data set [5] the test system is HEK293F cells. It counts as cell-based. The method, then:
as §6

In the case of `CC/C=C(\C)C(=O)O` [2M2P, trans-2-methyl 2-pentenoic acid], the “relative IgG concentration” value was 146% in data set [1] (3 mM, 2M2P/Quisinostat combination study); 146% in data set [1] (3 mM, VPA/2M2P combination study); 128% in data set [1] (3 mM, FIG. 6B); 128% in data set [1] (3 mM, FIG. 9B). For the same compound, the relative titer stood at 165% in data set [1] (2M2P concentration 3 mM); 257% in data set [1] (2M2P concentration 6 mM); 258% in data set [1] (2M2P concentration 7 mM); 172% in data set [1] (2M2P concentration 8 mM); 120% in data set [1] (2M2P concentration 9 mM); 42% in data set [1] (2M2P concentration 10 mM). In data set [1] (2M2P concentration 11 mM), this compound returned a relative titer of 0%. In data set [2] (3 mM), the HDACi is 9.4%. Also, the HDAC inhibition entry in data set [2] is “no”. Also, the “cell specific productivity with BAY11-7082 addition compared to the single treatment” value in data set [3] is “No reduction”. For the same compound, the “protein expression yields compared to the negative control” value in data set [3] (3 mM, in words) was “clearly increased”. The “specific productivity after 96 hours” value in data set [3] (3 mM, single treatment, N=3) amounted to 2.40 pg/cell/day. Besides, the activity at 3000 µM in data set [3] (Homo sapiens, HEK293F, 3 mM, 2M2P/Quisinostat combination study, none=100, N=3, read-out: relative cell specific productivity) was found to be 169%; in data set [3] (Homo sapiens, HEK293F, 3 mM, VPA/2M2P combination study, none=100, N=3, read-out: relative cell specific productivity) it was 169%; in data set [3] (Homo sapiens, HEK293F, 3 mM, none=100, N=3, FIG. 6A, read-out: relative cell specific productivity), 131%; in data set [3] (Homo sapiens, HEK293F, 3 mM, none=100, N=3, FIG. 9A, read-out: relative cell specific productivity), 131%; in data set [3] (Homo sapiens, HEK293F, 3 mM, single treatment, none=100, N=3, read-out: relative cell specific productivity), 144%; in data set [3] (Homo sapiens, HEK293F, 3 mM, transfected control=100, N=3, FIG. 3B, read-out: relative cell specific productivity), 191%. In data set [3] (Homo sapiens, HEK293F, employed concentration 3 mM, none=100, N=2, FIG. 4, read-out: relative cell specific productivity), the activity at 3000 µM worked out at 196%. Further, the activity at 2000 µM in data set [3] (Homo sapiens, HEK293F, employed concentration 2 mM, none=100, N=2, FIG. 4, read-out: relative cell specific productivity) is 123%. The “Mean cell specific productivity” value in data set [3] (conc. 3 mM) is 5.4 (3 mM) pg/cell/24 h. In addition, the HDAC inhibitory activity result in data set [4] is on record as “very weak to no HDAC inhibitory activity”. Besides, in data set [5] (human, 11 mM), the “toxicity (remark in titer cell)” value is given as “toxic”.

Regarding `Cl.Cn1cc(CNCC2CCN(c3ncc(C(=O)NO)cn3)CC2)c2ccccc21` [Quisinostat], the “relative IgG concentration” value in data set [1] (300 nM, 2M2P/Quisinostat combination study) is 169%; in data set [1] (300 nM, VPA/Quisinostat combination study), 169%. Besides, the HDACi in data set [2] (300 nM) amounted to 69%. For the same compound, in data set [2], the HDAC inhibition result is “yes”. Besides, in data set [3] (300 nM, single treatment, N=3), the “specific productivity after 96 hours” value amounted to 3.89 pg/cell/day. Moreover, the “cell specific productivity with BAY11-7082 addition compared to the single treatment” value in data set [3] was “significantly reduced”. Also, the activity at 0.3 µM in data set [3] (Homo sapiens, HEK293F, 300 nM, 2M2P/Quisinostat combination study, none=100, N=3, read-out: relative cell specific productivity) worked out at 258%; in data set [3] (Homo sapiens, HEK293F, 300 nM, VPA/Quisinostat combination study, none=100, N=3, read-out: relative cell specific productivity) it was 258%; in data set [3] (Homo sapiens, HEK293F, 300 nM, single treatment, none=100, N=3, read-out: relative cell specific productivity), 218%; in data set [3] (Homo sapiens, HEK293F, 300 nM, transfected control=100, N=3, FIG. 3B, read-out: relative cell specific productivity), 339%; in data set [3] (Homo sapiens, HEK293F, employed concentration 300 nM, none=100, N=2, FIG. 2B, read-out: relative cell specific productivity), 279%. Also, in data set [3] (conc. 300 mM (so in the source)), the “Mean cell specific productivity” value is reported as 1.71 (300 mM) pg/cell/24 h. Moreover, the “Effect on titer/SPR” value in data set [3] (summary table, in words) is “strong”. Moreover, the “HDAC class / isoform selectivity” value in data set [4] is “very potent broad spectrum HDAC inhibitor with highest potency towards HDAC 1, 2, 4, and 11”. Also, the “growth inhibition and cell death” value in data set [5] (in contrast to other HDACi tested) was “induce growth inhibition and cell death”.
